{"source": "patent US7919499B2", "about": "“Naltrexone long acting formulations and methods of use” (Alkermes, Inc., priority 2004, dated 2011)", "origin": "cited, not measured here", "test_system": "patients with alcohol dependence", "settings": "oral vs placebo; for Risk difference as % reduction, relapse to heavy drinking / Risk difference (95% CI), relapse to heavy drinking: Hopkins meta-analysis; for Risk difference (95% CI), relapse to heavy drinking: nine studies, fixed effects model", "key": {"[1]": {"settings": "Bouza et al, short term studies (≦12 weeks), listed as Oral Naltrexone"}, "[2]": {"settings": "Cochrane Review, 12 weeks, listed as Oral Naltrexone"}}, "note": "Read-outs that look alike come from different tables or passages of the source.", "data": [{"smiles": "O=C1CC[C@@]2(O)[C@H]3Cc4ccc(O)c5c4[C@@]2(CCN3CC2CC2)[C@H]1O5", "note": "[oral naltrexone, naltrexone]", "values": [{"measurement": "Decrease of odds of relapsing to heavy drinking relative to placebo", "setting": "Bouza et al, short term studies (≦12 weeks)", "value": 38, "unit": "%"}, {"measurement": "Decrease of odds of relapsing to heavy drinking relative to placebo", "setting": "[1]", "value": "(38% reduction)"}, {"measurement": "Odds ratio (95% CI), relapse to heavy drinking", "setting": "[1]", "value": "0.62 (0.52, 0.75)"}, {"measurement": "Decrease of relapse rate relative to placebo", "setting": "Cochrane Review, 12 weeks", "value": 36, "unit": "%"}, {"measurement": "Decrease of relapse rate relative to placebo", "setting": "[2]", "value": "(36% reduction)"}, {"measurement": "Relative risk (95% CI), relapse to heavy drinking", "setting": "[2]", "value": "0.64 (0.51, 0.82)"}, {"measurement": "Risk difference as % reduction, relapse to heavy drinking", "value": 13, "unit": "%"}, {"measurement": "Risk difference (95% CI), relapse to heavy drinking", "value": 0.13}, {"measurement": "Risk difference (95% CI), relapse to heavy drinking", "setting": "listed as Oral Naltrexone", "value": "0.13 (0.08, 0.17)"}, {"measurement": "Risk difference as % reduction, relapse to heavy drinking", "setting": "listed as Oral Naltrexone", "value": "(13% reduction)"}]}]}
